Assay [1] deals with cultured human mast cells (CHMC). Put plainly: CHMC low cell density IgE activation: tryptase and LTC4 assays. It is filed as cell-based. The settings on record: read-out: CHMC anti-IgE Tryptase. How it is done:
Pellet CHMC cells (980 rpm, 10 min) and resuspend in pre-warmed MT. Add 65 ul of cells to each 96-well plate. Depending on the degranulation activity for each particular CHMC donor, load 1000-1500 cells/well. Mix four times followed by a 1 hr incubation at 37° C. […] Stimulate cells by adding 25 ul of 6× anti-IgE solution to the appropriate plates. Add 25 ul MT to un-stimulated control wells. Mix twice following addition of the anti-IgE. Incubate at 37° C. for 30 minutes. […] Spin plates at 1000 rpm for 10 min to pellet cells. Transfer 25 ul of supernatant to a 96-well black bottom plate and add 100 ul of freshly diluted tryptase substrate solution to each well. Incubate plates at room temperature for 30 min.
Leukotriene C4 (LTC4) is also quantified using an ELISA kit on appropriately diluted supernatant samples (determined empirically for each donor cell population so that the sample measurement falls within the standard curve) following the supplier's instructions.

Assay [2] shares this test system. Put plainly: CHMC low cell density ionomycin activation: tryptase assay. It is filed as cell-based. The settings on record: read-out: CHMC Ionomycin Tryptase.
[3] abbreviates: Homo sapiens, Mast cell, Low Density CHMC, anti-IgE activation, tryptase readout.
[4] abbreviates: Homo sapiens, Mast cell, Low Density CHMC, ionomycin activation, tryptase readout.
[5] abbreviates: Low Density CHMC, anti-IgE activation, tryptase readout.
[6] abbreviates: Low Density CHMC, ionomycin activation, tryptase readout.

On to `Oc1cccc(Nc2nc(NCCc3c[nH]c4ccccc34)ncc2F)c1` [Compound R945117, 5-Fluoro-N4-(3-hydroxyphenyl)-N2-[2-(indol-3-yl)ethyl]-2,4-pyrimidinediamine], for which the IC50 is 4.08 µM in assay [1] (setting [3]) and > 10 µM in assay [2] (setting [4]).

Turning to `N#Cc1cnc(Nc2cccc(O)c2)nc1Nc1cccc(O)c1` [Compound R925774, N2,N4-Bis(3-hydroxyphenyl)-5-cyano-2,4-pyrimidinediamine], the figures for the IC50 in assay [1] (setting [3]) and in assay [2] (setting [4]) were 0.435 µM and > 10 µM, respectively. On to `O=C(O)c1ccc(Nc2ncc(F)c(Nc3ccc(C(=O)O)cc3)n2)cc1` [Compound R945037, N2,N4-Bis(4-carboxyphenyl)-5-fluoro-2,4-pyrimidinediamine], for which the IC50 in assay [1] (setting [3]) and in assay [2] (setting [4]) was > 10 µM in each case.

Take `Cc1ccc(Nc2ncc(F)c(Nc3ccc(C)c(N)c3)n2)cc1N` [Compound R950129, N2,N4-Bis(3-amino-4-methylphenyl)-5-fluoro-2,4-pyrimidinediamine]: the IC50 in assay [1] (setting [3]) was 0.665 µM; in assay [2] (setting [4]) it was > 10 µM.

Consider `COc1cc(Nc2nc(Nc3cccc(OCCO)c3)ncc2F)cc(OC)c1` [Compound R935181, N4-(3,5-Dimethoxyphenyl)-5-fluoro-N2-[3-(2-hydroxyethoxy)phenyl]-2,4-pyrimidinediamine], for which the IC50 in assay [1] (setting [3]) was 1.76 µM; in assay [2] (setting [4]), > 10 µM. Take `O=C(NCC(O)CO)c1cc2cc(Nc3ncc(F)c(Nc4ccc5c(c4)OCCO5)n3)ccc2o1` (centres unmarked) [Compound R926783, N2-[2-(N-2,3-Dihydroxypropylamino)carbonylbenzofuran-5-yl]-N4-(3,4-ethylenedioxyphenyl)-5-fluoro-2,4-pyrimidinediamine]: the figures for the IC50 in assay [1] (setting [3]) and in assay [2] (setting [4]) were 0.304 µM and > 10 µM, respectively. `CCOC(=O)c1nc(Nc2ccc3c(c2)OCCO3)nc(Nc2ccc3c(c2)OCCO3)c1N` [Compound R925857, 5-Amino-6-ethoxycarbonyl-N2,N4-bis(3,4-ethylenedioxyphenyl)-2,4-pyrimidinediamine]: the IC50 in assay [1] (setting [3]) was 5.95 µM; in assay [2] (setting [4]) it was > 10 µM. The like results for `Fc1cnc(NC(c2ccc(Cl)cc2)c2ccc(Cl)cc2)nc1NC(c1ccc(Cl)cc1)c1ccc(Cl)cc1` [Compound R935006, N2,N4-Bis[di-(4-chlorophenyl)methyl]-5-fluoro-2,4-pyrimidinediamine] were, in that order, 10 µM and 9.8 µM.

Turning to `Nc1cc(Nc2ncc(F)c(Nc3ccc([N+](=O)[O-])c(N)c3)n2)ccc1[N+](=O)[O-]` [Compound R950135, N2,N4-Bis(3-amino-4-nitrophenyl)-5-fluoro-2,4-pyrimidinediamine], the IC50 in assay [1] (Homo sapiens, Mast cell) is 0.85 µM; in assay [2] (Homo sapiens, Mast cell), > 10 µM.

Take `OCCn1ncc2ccc(Nc3ncc(F)c(Nc4ccc5cnn(CCO)c5c4)n3)cc21` [Compound R935238, N2,N4-Bis[1-(2-hydroxyethyl)indazoline-6-yl]-5-fluoro-2,4-pyrimidinediamine]: the IC50 in assay [1] (setting [5]) is 1.85 µM; in assay [2] (setting [6]) it was > 10 µM. On to `COC(=O)c1cc2cc(Nc3nc(Nc4ccc5c(c4)OCCO5)ncc3F)ccc2o1` [Compound R926485, N2-(3,4-Ethylenedioxyphenyl)-N4-(2-methoxycarbonylbenzofuran-5-yl)-5-fluoro-2,4-pyrimidinediamine], for which the IC50 in assay [1] (setting [3]) was 4.01 µM; in assay [2] (setting [4]), > 10 µM. With `Cc1ccc(-c2ccccc2)cc1Nc1ccnc(Nc2cc(-c3ccccc3)ccc2C)n1` [Compound R925807, N2,N4-Bis(2-methyl-5-phenylphenyl)-2,4-pyrimidinediamine], the IC50 in assay [1] (setting [3]) and in assay [2] (setting [4]) was > 10 µM throughout. As for `OCc1cccc(Nc2nc(Nc3ccc4c(c3)OCCO4)ncc2F)c1` [Compound R925758, N2-(3,4-Ethylenedioxyphenyl)-5-fluoro-N4-[3-(hydroxymethyl)phenyl]-2,4-pyrimidinediamine], the IC50 was 1.18 µM in assay [1] (setting [3]) and > 10 µM in assay [2] (setting [4]). As for `Nc1cc(Nc2ncc(F)c(Nc3ccc(Nc4ccccc4)c(N)c3)n2)ccc1Nc1ccccc1` [Compound R950125, N2,N4-Bis[3-amino-4-(N-phenylamino)-phenyl]-5-fluoro-2,4-pyrimidinediamine], the IC50 in assay [1] (setting [3]) was determined as 1.38 µM; in assay [2] (setting [4]), 6.3 µM. As for `Oc1cccc(Nc2nc(Nc3cccc(-c4cnco4)c3)ncc2F)c1` [Compound R926831, 5-Fluoro-N4-(3-hydroxyphenyl)-N2-[3-(1,3-oxazol-5-yl)phenyl]-2,4-pyrimidinediamine], the IC50 was found to be 0.133 µM in assay [1] (setting [3]) and 10 µM in assay [2] (setting [4]).

With `CC(C)Nc1cccc(Nc2ncc(F)c(Nc3cccc(NC(C)C)c3)n2)c1` [Compound R950166, N2,N4-Bis[3-(N-isopropyl)aminophenyl]-5-fluoro-2,4-pyrimidinediamine], the IC50 in assay [1] (setting [3]) is 1.89 µM; in assay [2] (setting [4]) it was > 10 µM. For `OCCN(CCO)c1cccc(Nc2ncc(F)c(Nc3ccc4c(c3)OCCO4)n2)c1` [Compound R950209, N2-[3-Bis(hydroxyethyl)aminophenyl]-N4-(3,4-ethylenedioxyphenyl)-5-fluoro-2,4-pyrimidinediamine], in that order: 0.748 µM and > 10 µM. For the compound `Fc1cnc(Nc2ccc(N3CCN(Cc4ccccc4)CC3)cc2)nc1Nc1ccc(N2CCN(Cc3ccccc3)CC2)cc1` [Compound R945152, N2,N4-Bis[4-(N-benzylpiperazino)phenyl]-5-fluoro-2,4-pyrimidinediamine], the IC50 was 6.94 µM in assay [1] (setting [3]) and > 10 µM in assay [2] (setting [4]). `Oc1cccc(Nc2nc(Nc3cccc(-c4nnn[nH]4)c3)ncc2F)c1` [Compound R926842, 5-Fluoro-N4-(3-hydroxyphenyl)-N2-[3-(tetrazol-5-yl)phenyl]-2,4-pyrimidinediamine]: the IC50 was 7.73 µM in assay [1] (setting [3]) and > 10 µM in assay [2] (setting [4]). Take `CCOC(=O)Nc1ccc(Nc2ncc(F)c(Nc3ccc(NC(=O)OCC)c(O)c3)n2)cc1O` [Compound R926340, N2,N4-Bis(4-ethoxycarbonylamino-3-hydroxyphenyl)-5-fluoro-2,4-pyrimidinediamine]: the IC50 was 3.23 µM in assay [1] (setting [3]) and > 10 µM in assay [2] (setting [4]). Turning to `CCOC(=O)CNc1nc(NCC(=O)OCC)c(N)c(C(=O)OCC)n1` [Compound R925865, 5-Amino-N2,N4-bis(ethoxycarbonylmethyl)-6-ethoxycarbonyl-2,4-pyrimidinediamine], the IC50 in assay [1] (setting [3]) and in assay [2] (setting [4]) was > 10 µM in each case. Consider `COC(=O)c1cc2cc(Nc3ncc(F)c(Nc4ccc(Cl)c(Cl)c4)n3)ccc2o1` [Compound R927027, N4-(3,4-Dichlorophenyl)-5-fluoro-N2-(2-methoxycarbonylbenzofuran-5-yl)-2,4-pyrimidinediamine], for which the IC50 in assay [1] (setting [3]) and in assay [2] (setting [4]) was > 10 µM in each case.

Take `CC(Nc1nc(Nc2cccc(O)c2)ncc1Br)c1ccc(F)cc1` (racemic) [Compound R935023, (±)-5-Bromo-N4-[1-(4-fluorophenyl)ethyl]-N2-(3-hydroxyphenyl)-2,4-pyrimidinediamine]: the IC50 in assay [1] (setting [3]) and in assay [2] (setting [4]) was > 10 µM throughout. `Cc1c(O)ccc(Nc2ncc(F)c(Nc3ccc(O)c(C)c3C)n2)c1C` [Compound R940217, N2,N4-Bis-(2,3-dimethyl-4-hydroxyphenyl)-5-fluoro-2,4-pyrimidinediamine]: the IC50 in assay [1] (setting [3]) and in assay [2] (setting [4]) was > 10 µM throughout. Regarding `COC(=O)c1ccc(CNc2ncc(C#N)c(NCc3ccc(C(=O)OC)cc3)n2)cc1` [Compound R925819, N2,N4-Bis(methoxycarbonylbenzyl)-5-cyano-2,4-pyrimidinediamine], the IC50 in assay [1] (setting [5]) and in assay [2] (setting [6]) was > 10 µM throughout. As for `Oc1cccc(Nc2ncc(-c3ccc4c(c3)OCO4)c(Nc3cccc(O)c3)n2)c1` [Compound R925788, N2,N4-Bis(3-hydroxyphenyl)-5-(3,4-methylenedioxyphenyl)-2,4-pyrimidinediamine], the IC50 in assay [1] (setting [3]) is 2.4 µM; in assay [2] (setting [4]), > 10 µM. Consider `CC(C)(C)OC(=O)Nc1ccc(Nc2ncc(F)c(Nc3ccc(NC(=O)OC(C)(C)C)cc3)n2)cc1` [Compound R950120, N2,N4-Bis[4-(tert-butoxycarbonylamino)phenyl]-5-fluoro-2,4-pyrimidinediamine], for which the IC50 in assay [1] (setting [3]) is 3 µM; in assay [2] (setting [4]) it was > 10 µM. Regarding `CCNC(=O)Oc1cccc(Nc2ncc(F)c(Nc3cccc(O)c3)n2)c1` [Compound R926928, N2-[3-[(N-Ethylamino)carbonyloxy]phenyl]-5-fluoro-N4-(3-hydroxyphenyl)-2,4-pyrimidinediamine], the IC50 was 0.575 µM in assay [1] (Homo sapiens, Mast cell) and > 10 µM in assay [2] (Homo sapiens, Mast cell). Regarding `CN1C(=O)COc2ccc(Nc3ncc(F)c(Nc4cccc(O)c4)n3)cc21` [Compound R908703, 5-Fluoro-N4-(3-hydroxyphenyl)-N2-(N-methyl-1,4-benzoxazine-3-on-6-yl)-2,4-pyrimidinediamine], the IC50 in assay [1] (setting [3]) was 0.63 µM; in assay [2] (setting [4]) it was > 10 µM.

For `CNC(=O)COc1cccc(Nc2ncc(F)c(Nc3ccc4c(c3)C(=O)CCC4)n2)c1` [Compound R926947, 5-Fluoro-N4-(1,2,3,4-tetrahydro-1-oxonaphthalen-7-yl)-N2-[3-[(N-methylamino)carbonylmethyleneoxy]phenyl]-2,4-pyrimidinediamine], in assay [2] (setting [6]), the IC50 was > 10 µM.

The values above are taken from patent publication US10828301B2, “2,4-pyrimidinediamine compounds and their uses” (Rigel Pharmaceuticals, Inc, priority 2002, dated 2020).
